# Measured values taken from patent publication US20120328588A1, “COMPOUND PREPARATION AND ITS USES FOR PREVENTION AND TREATMENT OF HEARING IMPAIRMENT” (The Second Military Medical University of Chinese PLA, priority 2010, published 2012).
# Columns and labels:
# [1] = tested on: guinea pigs exposed to noise; assay: Preventive effect on noise-induced hearing impairment: hearing threshold shift of guinea pigs, drug given two days before noise exposure; format: in vivo
# Experimental: Experiments with Hearing Threshold Shift Sixty-four guinea pigs with normal weight and pure white hair were randomly divided into control group, alpha-lipoic acid group, nimodipine group, and compound preparation group. The guinea pigs were exposed to an octave band of noise (OBN) centered at 4 kHz, 115 dB SPL, 4 h per day. Two days before noise exposure, animals in the study groups were administered with the corresponding drug dose as designed, and those in the control group were administered with normal saline (NS). Hearing threshold shift of the animals was determined at different intervals of noise exposure in different groups. The synergistic effect of alpha-lipoic acid and nimodipine on regulating hearing threshold shift was observed and analyzed using q test.
# (§1) Being less than 20 dB was considered as an effective value. The synergistic effect of alpha-lipoic acid and nimodipine was analyzed using q test. Pla=2/8 means that there were 8 guinea pigs in the alpha-lipoic acid group, within which 2 were effective, and the remaining 6 were invalid. The mean of the rest was analogous to Pla=2/8.
# [2] = tested on: guinea pigs exposed to noise; assay: Therapeutic effect on noise-induced hearing impairment: hearing threshold shift of guinea pigs, drug given intravenously within 7 days after noise exposure; format: in vivo
# Experimental: Eighty guinea pigs with normal weight and pure white hair were randomly divided into control group, alpha-lipoic acid group, nimodipine group, and compound preparation group. The animals were exposed to an octave band of noise (OBN) centered at 4 kHz, 115 dB SPL, 4 h per day. Animals in the study groups were administered intravenously with the corresponding drug dose as designed, and those in the control group were administered with NS within 7 days after noise exposure. Hearing threshold shift of the animals was determined at different intervals of noise exposure in different groups. The synergistic effect of alpha-lipoic acid and nimodipine on regulating hearing threshold shift was observed and analyzed using q test.
# as §1, with “test. Pla=4/10” for “test. Pla=2/8”, “were 10” for “were 8”, “which 4” for “which 2”, “to Pla=4/10.” for “to Pla=2/8.”
smiles,measurement,setting,value
"O=C(O)CCCCC1CCSS1 (stereo not shown) [LA, 1-2 dithiolane-3-pentanoic acid]",Mean change in hearing threshold shift,"[1]; LA 80 mg/kg, at 1st after exposure",32.5 dB
same,Mean change in hearing threshold shift,"[1]; LA 80 mg/kg, at 7th day after exposure",20.5 dB
same,P (effective guinea pigs / guinea pigs in group),"[1]; LA 80 mg/kg, effective = mean hearing threshold shift less than 20 dB within 7 days of exposure to noise",Pla = 2/8
same,Mean change in hearing threshold shift,"[2]; LA 80 mg/kg intravenously, 2 weeks after exposure",20.5 dB
same,Mean change in hearing threshold shift,"[2]; LA 80 mg/kg intravenously, at 1st day after exposure",32.5 dB
same,P (effective guinea pigs / guinea pigs in group),"[2]; LA 80 mg/kg intravenously, effective = mean hearing threshold shift less than 20 dB within 7 days after noise exposure",Pla = 4/10
"COCCOC(=O)C1=C(C)NC(C)=C(C(=O)OC(C)C)C1c1cccc([N+](=O)[O-])c1 (stereo not shown) [NIM, Nimodipine]",Mean change in hearing threshold shift,"[1]; NIM 2 mg/kg, at 1st after exposure",41.0 dB
same,Mean change in hearing threshold shift,"[1]; NIM 2 mg/kg, at 7th day after exposure",23.5 dB
same,Mean change in hearing threshold shift,"[1]; NIM 4 mg/kg, at 1st after exposure",38.5 dB
same,Mean change in hearing threshold shift,"[1]; NIM 4 mg/kg, at 7th day after exposure",24 dB
same,Mean change in hearing threshold shift,"[1]; NIM 8 mg/kg, at 1st after exposure",38 dB
same,Mean change in hearing threshold shift,"[1]; NIM 8 mg/kg, at 7th day after exposure",22.0 dB
same,Mean change in hearing threshold shift,"[1]; NIM 16 mg/kg, at 1st after exposure",36 dB
same,Mean change in hearing threshold shift,"[1]; NIM 16 mg/kg, at 7th day after exposure",22.0 dB
same,Mean change in hearing threshold shift,"[2]; NIM 2 mg/kg intravenously, 2 weeks after exposure",23.5 dB
same,Mean change in hearing threshold shift,"[2]; NIM 2 mg/kg intravenously, at 1st day after exposure",41.0 dB
same,Mean change in hearing threshold shift,"[2]; NIM 4 mg/kg intravenously, 2 weeks after exposure",24 dB
same,Mean change in hearing threshold shift,"[2]; NIM 4 mg/kg intravenously, at 1st day after exposure",38.5 dB
same,Mean change in hearing threshold shift,"[2]; NIM 8 mg/kg intravenously, 2 weeks after exposure",22.0 dB
same,Mean change in hearing threshold shift,"[2]; NIM 8 mg/kg intravenously, at 1st day after exposure",38 dB
same,Mean change in hearing threshold shift,"[2]; NIM 16 mg/kg intravenously, 2 weeks after exposure",22.0 dB
same,Mean change in hearing threshold shift,"[2]; NIM 16 mg/kg intravenously, at 1st day after exposure",36 dB
